Reference: patent US20170283834A1, “Processes for Producing A Fermentation Product Using A Fermenting Organism” (Novozymes A/S, priority 2014, published 2017)
Substitutions are numbered along the chain they refer to. Names and notes keep the numbering of the source.

Columns and labels:
Ethanol Red™ = test: Addition of acetate to ethanol fermentations (SSF of corn mash); details: for % change over no added acetate: glycerol
Method: The yeast strain tested in this experiment was Ethanol […] ). […] After a total of 30 minutes, the flasks were removed from the water bath. Total yeast concentration was determined using the YC-100 in duplicate. LactrolTM (PhibroChem) was added to each mash to a final concentration of 24 ppm. […] Approximately 5 grams of each of the resulting mashes was transferred to test tubes having a 1/64 hole drilled in the top to allow CO2 release. […] Yeast was dosed at 5×10e6 cells/g mash. Milli-Q water was added to each tube so that a total volume of liquid added (enzyme+MQ water+acid) to each tube would be equally proportionate to the mash weight. Fermentations took place in a 32° C. water bath for 54 hours. Samples were vortexed periodically (in the morning and in the evening) throughout the fermentation. […] Fermentation sampling took place after 48 and 54 hours of fermentation by sacrificing 3 tubes per treatment. […] All samples were processed without further dilution. Samples were stored at 4° C. prior to and during HPLC analysis. Samples were analyzed for sugars (DP4+, DP3, DP2, glucose, and fructose), organic acids (lactic and acetic), glycerol, and ethanol.

zein [1] = test: Relative activity assay of protease variants (zein micro titer plate); format: biochemical; details: for Relative activity 75° C./65° C.: Table 3
Method in brief: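 Relative activity is the ratio of zein clearance (A630 turbidity) at a higher versus lower temperature, e.g. 60/65 °C or 70/80 °C. Supernatants from 3-day yeast cultures applied to 0.05-0.1% zein agar in 20 mM sodium acetate pH 4.5 with zinc, incubated at least 4 h.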

zein [2] = test: Zein-BCA assay, temperature profile of purified protease variants; format: biochemical
Method: Selected variants showing good thermo-stability were purified and the purified enzymes were used in a zein-BCA assay as described below. The remaining protease activity was determined at 60° C. after incubation of the enzyme at elevated temperatures as indicated for 60 min.
Zein-BCA assay was performed to detect soluble protein quantification released from zein by variant proteases at various temperatures.
• 1) Mix 10 ul of 10 ug/ml enzyme solutions and 100 ul of 0.025% zein solution in a micro titer plate (MTP). • 2) Incubate at various temperatures for 60 min. • 3) Add 10 ul of 100% trichloroacetic acid (TCA) solution. • 4) Centrifuge MTP at 3500 rpm for 5 min. • 5) Take out 15 ul to a new MTP containing 100 ul of BCA assay solution (Pierce Cat#:23225, BCA Protein Assay Kit). • 6) Incubate for 30 min. at 60° C. • 7) Measure A562.

[3] = Sample incubated 60 min at 60° C.
[4] = Sample incubated 60 min at 70° C.
[5] = Sample incubated 60 min at 75° C.
[6] = Sample incubated 60 min at 80° C.
[7] = Sample incubated 60 min at 85° C.
[8] = Sample incubated 60 min at 90° C.
[9] = Sample incubated 60 min at 95° C.

CC(=O)O [Acetate, acetic acid]
Glycerol levels with added acetate (Ethanol Red™): reduced | 48 Hour ETOH (w/v %) (Ethanol Red™; Added Acetate 5 mM, 48 hours): 13.55 w/v % | 48 Hour Glycerol (w/v %) (Ethanol Red™; Added Acetate 5 mM, 48 hours): 1.636 w/v % | % Boost over no added acetate (Ethanol Red™; Added Acetate 5 mM, 48 hours): 0.28% | 54 Hour ETOH (w/v %) (Ethanol Red™; Added Acetate 5 mM, 54 hours): 13.71 w/v % | 54 Hour Glycerol (w/v %) (Ethanol Red™; Added Acetate 5 mM, 54 hours): 1.625 w/v % | % Boost over no added acetate (Ethanol Red™; Added Acetate 5 mM, 54 hours): 0.97% | 48 Hour ETOH (w/v %) (Ethanol Red™; Added Acetate 10 mM, 48 hours): 13.66 w/v % | 48 Hour Glycerol (w/v %) (Ethanol Red™; Added Acetate 10 mM, 48 hours): 1.553 w/v % | % Boost over no added acetate (Ethanol Red™; Added Acetate 10 mM, 48 hours): 1.07% | 54 Hour ETOH (w/v %) (Ethanol Red™; Added Acetate 10 mM, 54 hours): 13.73 w/v % | 54 Hour Glycerol (w/v %) (Ethanol Red™; Added Acetate 10 mM, 54 hours): 1.569 w/v % | % Boost over no added acetate (Ethanol Red™; Added Acetate 10 mM, 54 hours): 1.10% | 48 Hour ETOH (w/v %) (Ethanol Red™; Added Acetate 20 mM, 48 hours): 13.77 w/v % | 48 Hour Glycerol (w/v %) (Ethanol Red™; Added Acetate 20 mM, 48 hours): 1.462 w/v % | % Boost over no added acetate (Ethanol Red™; Added Acetate 20 mM, 48 hours): 1.88% | 54 Hour ETOH (w/v %) (Ethanol Red™; Added Acetate 20 mM, 54 hours): 13.83 w/v % | 54 Hour Glycerol (w/v %) (Ethanol Red™; Added Acetate 20 mM, 54 hours): 1.45 w/v % | % Boost over no added acetate (Ethanol Red™; Added Acetate 20 mM, 54 hours): 1.90% | 48 Hour ETOH (w/v %) (Ethanol Red™; Added Acetate 40 mM, 48 hours): 13.82 w/v % | 48 Hour Glycerol (w/v %) (Ethanol Red™; Added Acetate 40 mM, 48 hours): 1.365 w/v % | % Boost over no added acetate (Ethanol Red™; Added Acetate 40 mM, 48 hours): 2.29% | 54 Hour ETOH (w/v %) (Ethanol Red™; Added Acetate 40 mM, 54 hours): 13.83 w/v % | 54 Hour Glycerol (w/v %) (Ethanol Red™; Added Acetate 40 mM, 54 hours): 1.365 w/v % | % Boost over no added acetate (Ethanol Red™; Added Acetate 40 mM, 54 hours): 1.84% | 48 Hour ETOH (w/v %) (Ethanol Red™; Added Acetate 60 mM, 48 hours): 13.88 w/v % | 48 Hour Glycerol (w/v %) (Ethanol Red™; Added Acetate 60 mM, 48 hours): 1.332 w/v % | % Boost over no added acetate (Ethanol Red™; Added Acetate 60 mM, 48 hours): 2.71% | 54 Hour ETOH (w/v %) (Ethanol Red™; Added Acetate 60 mM, 54 hours): 13.83 w/v % | 54 Hour Glycerol (w/v %) (Ethanol Red™; Added Acetate 60 mM, 54 hours): 1.323 w/v % | % Boost over no added acetate (Ethanol Red™; Added Acetate 60 mM, 54 hours): 1.84% | 48 Hour ETOH (w/v %) (Ethanol Red™; Added Acetate 120 mM, 48 hours): 12.92 w/v % | 48 Hour Glycerol (w/v %) (Ethanol Red™; Added Acetate 120 mM, 48 hours): 1.337 w/v % | % Boost over no added acetate (Ethanol Red™; Added Acetate 120 mM, 48 hours): −4.41% | 54 Hour ETOH (w/v %) (Ethanol Red™; Added Acetate 120 mM, 54 hours): 12.94 w/v % | 54 Hour Glycerol (w/v %) (Ethanol Red™; Added Acetate 120 mM, 54 hours): 1.34 w/v % | % Boost over no added acetate (Ethanol Red™; Added Acetate 120 mM, 54 hours): −4.68% | % change over no added acetate (Ethanol Red™; Added Acetate 5 mM, 48 hours): −4.68% | % change over no added acetate (Ethanol Red™; Added Acetate 5 mM, 54 hours): −3.86% | % change over no added acetate (Ethanol Red™; Added Acetate 10 mM, 48 hours): −9.53% | % change over no added acetate (Ethanol Red™; Added Acetate 10 mM, 54 hours): −7.18% | % change over no added acetate (Ethanol Red™; Added Acetate 20 mM, 48 hours): −14.85% | % change over no added acetate (Ethanol Red™; Added Acetate 20 mM, 54 hours): −14.21% | % change over no added acetate (Ethanol Red™; Added Acetate 40 mM, 48 hours): −20.48% | % change over no added acetate (Ethanol Red™; Added Acetate 40 mM, 54 hours): −19.21% | % change over no added acetate (Ethanol Red™; Added Acetate 60 mM, 48 hours): −22.40% | % change over no added acetate (Ethanol Red™; Added Acetate 60 mM, 54 hours): −21.70% | % change over no added acetate (Ethanol Red™; Added Acetate 120 mM, 48 hours): −22.09% | % change over no added acetate (Ethanol Red™; Added Acetate 120 mM, 54 hours): −20.68%

B1: JTP050: protease variant of SEQ ID NO: 3: D79L/S87P/A112P/D142L (protein, listed as Thermoascus aurantiacus)
chain: MRLVASLTALVALSVPVFPAAVNVKRASSYLEITLSQVSNTLIKAVVQNTGSDELSFVHLNFFKDPAPVKKVSVYRDGSEVQFEGILSRYKSTGLSRDAFTYLAPGESVEDVFDIASTYDLTSGGPVTIRTEGVVPYATANSTDIAGYISYSSNVLTIDVDGAAAATVSKAITPLDRRTRISSCSGSRQSALTTALRNAASLANAAADAAQSGSASKFSEYFKTTSSSTRQTVAARLRAVAREASSSSSGATTYYCLDPYGYCSPNVLAYTLPSYNIIANCDIFYTYLPPLTSTCHAQDQATTALHEFTHAPGVYSPGTLDLAYGYQAAMGLSSSQAVMNADTYALYANAIYLGC
Relative activity 75° C./65° C. (zein [1]): 88% | Relative activity 75° C./70° C. (zein [1]; Table 5, upper part): 55% | Relative activity 80° C./70° C. (zein [1]; Table 5, upper part): 23% | Relative activity 85° C./70° C. (zein [1]; Table 5, upper part): 9% | Bovine serum albumin equivalent peptide released (zein [2]; [3]): 86 µg/mL | Bovine serum albumin equivalent peptide released (zein [2]; [4]): 101 µg/mL | Bovine serum albumin equivalent peptide released (zein [2]; [5]): 107 µg/mL | Bovine serum albumin equivalent peptide released (zein [2]; [6]): 107 µg/mL | Bovine serum albumin equivalent peptide released (zein [2]; [7]): 104 µg/mL | Bovine serum albumin equivalent peptide released (zein [2]; [8]): 63 µg/mL | Bovine serum albumin equivalent peptide released (zein [2]; [9]): 36 µg/mL

B2: JTP196: protease variant of SEQ ID NO: 3: A27K D79L Y82F S87G D104P A112P A126V D142L (protein, listed as Thermoascus aurantiacus)
chain: B1 chain with A205K, Y260F, P265G, D282P, A304V
Relative activity 75° C./70° C. (zein [1]; Table 5, lower part): 102% | Relative activity 80° C./70° C. (zein [1]; Table 5, lower part): 55% | Relative activity 85° C./70° C. (zein [1]; Table 5, upper part): 18% | Bovine serum albumin equivalent peptide released (zein [2]; [3]): 87 µg/mL | Bovine serum albumin equivalent peptide released (zein [2]; [4]): 99 µg/mL | Bovine serum albumin equivalent peptide released (zein [2]; [5]): 103 µg/mL | Bovine serum albumin equivalent peptide released (zein [2]; [6]): 106 µg/mL | Bovine serum albumin equivalent peptide released (zein [2]; [7]): 117 µg/mL | Bovine serum albumin equivalent peptide released (zein [2]; [8]): 90 µg/mL | Bovine serum albumin equivalent peptide released (zein [2]; [9]): 38 µg/mL

B3: JTP077: protease variant of SEQ ID NO: 3: A27K/D79L/S87P/A112P/D142L (protein, listed as Thermoascus aurantiacus)
chain: B1 chain with A205K
Relative activity 75° C./65° C. (zein [1]): 106% | Bovine serum albumin equivalent peptide released (zein [2]; [3]): 82 µg/mL | Bovine serum albumin equivalent peptide released (zein [2]; [4]): 94 µg/mL | Bovine serum albumin equivalent peptide released (zein [2]; [5]): 104 µg/mL | Bovine serum albumin equivalent peptide released (zein [2]; [6]): 105 µg/mL | Bovine serum albumin equivalent peptide released (zein [2]; [7]): 99 µg/mL | Bovine serum albumin equivalent peptide released (zein [2]; [8]): 56 µg/mL | Bovine serum albumin equivalent peptide released (zein [2]; [9]): 31 µg/mL
